Results reported in patent US10174006B2, “Topical aqueous ophthalmic compositions containing a 1H-indole-1-carboxamide derivative and use thereof for treatment of ophthalmic disease” (Novartis AG, priority 2013, dated 2019).
Values after ≈ are worked out from the molar mass of the structure shown. Read-outs that look alike come from different tables or passages of the source.

Assays:
[1] = Solubility in 5% HP-β-CD at pH 4.5 versus pH 7 (Table II); format: physicochemical; conditions: for Solubility Enhancement (fold): compared to intrinsic solubility at pH 7
Description: Thus, depending upon the type of composition, the desired pH of the composition may be different. For compositions that include the cyclodextrin derivative, particularly the β-cyclodextrin derivative, γ-cyclodextrin derivative or combination thereof, and even more typically hydroxypropy-β-cyclodextrin, hydroxypropyl-γ-cyclodextrin or a combination thereof, the pH is preferably relatively low. The relatively low pH is typically at least 3.0, more typically at least 4.0 and even more typically at least 4.3, but is typically no greater than 5.5, more typically no greater than 5.0 and even more typically no greater than 4.7. It is also preferable that the pH of the composition be at least 4.0 but no greater than 5.0 and more preferably at least 4.3 but no greater than 4.7. Such compositions will typically be solutions in which the 1H-indole-1-carboxamide is dissolved.

[2] = Ocular tissue and plasma PK after repeated t.i.d. monocular dosing for 7 days; format: in vivo, pigmented rabbits; conditions: 2% t.i.d. 7 days
Experimental: In the contralateral undosed eyes of the 2% t.i.d treatment group, N-(1-methyl-5-(trifluoromethyl)-1H-pyrazol-3-yl)-5-((6-((methylamino)methyl)pyrimidin-4-yl)oxy)-1H-indole-1-carboxamide exposure was lower with the AUClast values of 1260 ng*h/g in cornea, 293000 ng*h/g in RPE/choroid and 3640 ng*h/g in retina.
PK parameters of 1H-indole-1-carboxamide in ocular tissues and plasma following repeated t.i.d. monocular OD dosing for 7 days of 2% N-(1-methyl-5-(trifluoromethyl)-1H-pyrazol-3-yl)-5-((6-((methylamino)methyl)pyrimidin-4-yl)oxy)-1H-indole-1-carboxamide formulation in pigmented rabbits employing suspension C-2 in Table B below.

[3] = Solubility in 8% HP-γ-CD in acetate buffer with different pH adjustment agents (Table III); format: physicochemical
[4] = Ocular tissue and plasma PK after single unilateral topical dose; format: in vivo, pigmented NZW×NZR rabbits; conditions: pigmented NZW×NZR, rabbit, single unilateral 30 μL dose at 0.5%, 1% and 2%
Experimental: A single unilateral dose (30 μL) of a preferred ophthalmic suspension composition (i.e., suspension C-2 in Example 3 below) of the present invention was dosed onto the right (OD) eye of pigmented NZW×NZR rabbits at 0.5%, 1%, and 2% N-(1-methyl-5-(trifluoromethyl)-1H-pyrazol-3-yl)-5-((6-((methylamino)methyl)pyrimidin-4-yl)oxy)-1H-indole-1-carboxamide.

[5] = Zeta potential of LHA510 particles with additives; format: physicochemical; conditions: dispersant deionized water
Experimental: It was determined that NaCMC unexpectedly provide the 1H-indole-1-carboxamide with desired Zeta Potential. In particular, NaCMC creates repulsive forces between the particles of 1H-indole-1-carboxamide.

[6] = Equilibrium solubility in HPβCD or HPγCD in acetate (first Table I); format: physicochemical; conditions: for solubility at 3 day: thermodynamic from solid, read-out: 1H-indole-1-carboxamide Solubility
Description: Hydroxypropyl-γ-cyclodextrin is preferred for dissolution of the 1H-indole-1-carboxamide.

[7] = as above; format: physicochemical; conditions: for solubility at 3 day: thermodynamic from solid, read-out: 1H-indole-1-carboxamide Solubility; remark: listed apart in the source
[8] = NZW×NZR (pigmented), rabbit, RPE/choroid of the dosed eye (OD), topical or ocular, 2 % formulation, RPE/Choroid OD (dosed eye)
[9] = NZW×NZR (pigmented), rabbit, cornea of the dosed (OD) eye, topical or ocular, Cornea OD (dosed eye)
[10] = NZW×NZR (pigmented), rabbit, cornea of the undosed (OS) eye, topical or ocular, Cornea OS (undosed eye)
[11] = pigmented NZW×NZR, rabbit, RPE/choroid of the undosed (OS) eye, topical or ocular, RPE/Choroid OS (undosed eye)
[12] = pigmented NZW×NZR, rabbit, retina of the dosed (OD) eye, topical or ocular, Retina OD (dosed eye)
[13] = pigmented NZW×NZR, rabbit, retina of the undosed (OS) eye, topical or ocular, Retina OS (undosed eye)

- solubility ([1]; 5% HP-β-CD in acetate buffer, aqueous with cosolvent or surfactant or cyclodextrin, 5% HP-β-CD/Acetate buffer/pH 4.5, final pH 4.64, read-out: 1H-indole-1-carboxamide Solubility): 11.7 mg/mL
- solubility ([1]; 5% HP-β-CD in phosphate buffer, aqueous with cosolvent or surfactant or cyclodextrin, 5% HP-β-CD/Phosphate buffer/pH 7, final pH 7.06, read-out: 1H-indole-1-carboxamide Solubility): 1.01 mg/mL
- Solubility Enhancement (fold) ([1]; 5% HP-β-CD/Acetate buffer/pH 4.5): 1667 fold
- Solubility Enhancement (fold) ([1]; 5% HP-β-CD/Phosphate buffer/pH 7): 144 fold
- solubility ([1]; pH 7, aqueous buffer, read-out: intrinsic solubility): ~0.007 mg/mL
- plasma accumulation [2]: no evidence of plasma accumulation
- AUClast Mean ([2]; Cornea OD (dosed eye), Tlast = 96 h): 317000 ng·h/g
- AUClast Mean ([2]; Cornea OS (undosed eye), Tlast = 96 h): 1260 ng·h/g
- Cmax [2, 8]: 6410 ng/g
- Tmax [2, 8]: 0.5 h
- Cmax [2, 9]: 32300 ng/g
- Tmax [2, 9]: 1 h
- Cmax [2, 10]: 47.5 ng/g
- Tmax [2, 10]: 0 h
- Tmax ([2]; NZW×NZR (pigmented), rabbit, topical or ocular, Plasma): 0.5 h
- Cmax ([2]; NZW×NZR (pigmented), rabbit, topical, Plasma): 1.85 ng/mL
- AUC(0-t) ([2]; NZW×NZR (pigmented), rabbit, topical, Plasma, Tlast = 96 h, read-out: AUClast Mean): 5.12 ng·h/mL
- AUClast Mean ([2]; RPE/Choroid OD (dosed eye), Tlast = 96 h): 453000 ng·h/g
- AUClast Mean ([2]; RPE/Choroid OS (undosed eye), Tlast = 96 h): 293000 ng·h/g
- local penetration in the dosed eyes as share of the total AUClast ([2]; RPE/choroid): 37.1%
- AUClast Mean ([2]; Retina OD (dosed eye), Tlast = 96 h): 8400 ng·h/g
- AUClast Mean ([2]; Retina OS (undosed eye), Tlast = 96 h): 3640 ng·h/g
- Cmax [2, 11]: 3950 ng/g
- Tmax [2, 11]: 18 h
- Cmax [2, 12]: 122 ng/g
- Tmax [2, 12]: 18 h
- Cmax [2, 13]: 67.2 ng/g
- Tmax [2, 13]: 18 h
- local penetration in the dosed eyes as share of the total AUClast ([2]; retina): 56.7%
- solubility ([3]; pH 4.732, aqueous with cosolvent or surfactant or cyclodextrin, pH adjustment agent 1N Glucoronic acid, final pH 4.732, read-out: 1H-indole-1-carboxamide Solubility): 36 mg/mL (≈ 80.8 mM)
- solubility ([3]; pH 4.872, aqueous with cosolvent or surfactant or cyclodextrin, pH adjustment agent 1N Citric acid, final pH 4.872, read-out: 1H-indole-1-carboxamide Solubility): 6.88 mg/mL (≈ 15.4 mM)
- solubility ([3]; pH 4.887, aqueous with cosolvent or surfactant or cyclodextrin, pH adjustment agent 1N Acetic acid, final pH 4.887, read-out: 1H-indole-1-carboxamide Solubility): 30.3 mg/mL (≈ 68 mM)
- solubility ([3]; pH 4.887, aqueous with cosolvent or surfactant or cyclodextrin, pH adjustment agent 1N Hydrochloric acid, final pH 4.887, read-out: 1H-indole-1-carboxamide Solubility): 15.5 mg/mL (≈ 34.7 mM)
- solubility ([3]; pH 4.902, aqueous with cosolvent or surfactant or cyclodextrin, pH adjustment agent 1N Methanesulfonic acid, final pH 4.902, read-out: 1H-indole-1-carboxamide Solubility): 32.6 mg/mL (≈ 73.1 mM)
- solubility ([3]; pH 4.955, aqueous with cosolvent or surfactant or cyclodextrin, pH adjustment agent 1N Lactic acid, final pH 4.955, read-out: 1H-indole-1-carboxamide Solubility): 33 mg/mL (≈ 74.2 mM)
- solubility ([3]; pH 4.973, aqueous with cosolvent or surfactant or cyclodextrin, pH adjustment agent 1N Sulfuric acid, final pH 4.973, read-out: 1H-indole-1-carboxamide Solubility): 35.6 mg/mL (≈ 79.9 mM)
- solubility ([3]; pH 5.014, aqueous with cosolvent or surfactant or cyclodextrin, pH adjustment agent 1N Phosphoric acid, final pH 5.014, read-out: 1H-indole-1-carboxamide Solubility): 25.4 mg/mL (≈ 57.1 mM)
- Tmax ([4]; RPE/choroid): 18 to 48 h
- Tmax ([4]; all ocular tissues and plasma except RPE/choroid): 0.5 to 3 h
- Zeta Potential ([5]; Additive: 10 mM NaCl): 0.6 mV
- Zeta Potential ([5]; Additive: 0.1% Pluronic F127): −1.09 mV
- Zeta Potential ([5]; Additive: 0.5% Sodium CMC 7LF PH): −40.3 mV
- Zeta Potential ([5]; Additive: 1% Pluronic F127): −0.962 mV
- Zeta Potential ([5]; Additive: 1% Polyvinyl phosphoric acid (PVPA)): −0.835 mV
- Zeta Potential ([5]; Additive: 1% Povidone (PVP 29/32)): 0 mV
- Zeta Potential ([5]; Additive: 1% Sodium CMC 7LF PH): −47.8 mV
- Zeta Potential ([5]; Additive: 1% Vitamin E TPGS): −1.77 mV
- Zeta Potential ([5]; Additive: None): −2.58 mV
- 1H-indole-1-carboxamide Solubility ([6]; 1% HPγCD in Acetate, pH 4.607, equilibrium solubility at day 3): 9.09 mg/mL
- 1H-indole-1-carboxamide Solubility ([6]; 2.5% HPγCD in Acetate, pH 4.555, equilibrium solubility at day 3): 14.69 mg/mL
- solubility at 3 day ([6]; 2.5% HPγCD in acetate, pH 4.555, aqueous with cosolvent or surfactant or cyclodextrin, 2.5% HPγCD in Acetate, pH 4.555, equilibrium solubility at day 3): 14.7 mg/mL (≈ 33.1 mM)
- 1H-indole-1-carboxamide Solubility ([6]; 5% HPγCD in Acetate, pH 4.505, equilibrium solubility at day 3): 22.34 mg/mL
- solubility at 3 day ([6]; 5% HPγCD in acetate, pH 4.505, aqueous with cosolvent or surfactant or cyclodextrin, 5% HPγCD in Acetate, pH 4.505, equilibrium solubility at day 3): 21.9 mg/mL (≈ 49.1 mM)
- 1H-indole-1-carboxamide Solubility ([6]; 8% HPγCD in Acetate, pH 4.580, equilibrium solubility at day 3): 30.60 mg/mL
- solubility at 3 day ([6]; 10% HPγCD in acetate, pH 4.668, aqueous with cosolvent or surfactant or cyclodextrin, 10% HPγCD in Acetate, pH 4.668, equilibrium solubility at day 3): 34.3 mg/mL (≈ 77 mM)
- 1H-indole-1-carboxamide Solubility ([7]; 1% HPβCD in Acetate, pH 4.584, equilibrium solubility at day 3): 7.28 mg/mL
- solubility at 3 day ([7]; 1% HPβCD in acetate, pH 4.584, aqueous with cosolvent or surfactant or cyclodextrin, 1% HPβCD in Acetate, pH 4.584, equilibrium solubility at day 3): 7.5 mg/mL (≈ 16.8 mM)
- solubility at 3 day ([7]; 1% HPγCD in acetate, pH 4.607, aqueous with cosolvent or surfactant or cyclodextrin, 1% HPγCD in Acetate, pH 4.607, equilibrium solubility at day 3): 9.28 mg/mL (≈ 20.8 mM)
- 1H-indole-1-carboxamide Solubility ([7]; 2.5% HPβCD in Acetate, pH 4.606, equilibrium solubility at day 3): 12.45 mg/mL
- solubility at 3 day ([7]; 2.5% HPβCD in acetate, pH 4.606, aqueous with cosolvent or surfactant or cyclodextrin, 2.5% HPβCD in Acetate, pH 4.606, equilibrium solubility at day 3): 12.5 mg/mL (≈ 28 mM)
- 1H-indole-1-carboxamide Solubility ([7]; 5% HPβCD in Acetate, pH 4.670, equilibrium solubility at day 3): 15.93 mg/mL
- solubility at 3 day ([7]; 5% HPβCD in acetate, pH 4.67, aqueous with cosolvent or surfactant or cyclodextrin, 5% HPβCD in Acetate, pH 4.670, equilibrium solubility at day 3): 19.6 mg/mL (≈ 44 mM)
- 1H-indole-1-carboxamide Solubility ([7]; 8% HPβCD in Acetate, pH 4.530, equilibrium solubility at day 3): 25.67 mg/mL
- solubility at 3 day ([7]; 8% HPβCD in acetate, pH 4.53, aqueous with cosolvent or surfactant or cyclodextrin, 8% HPβCD in Acetate, pH 4.530, equilibrium solubility at day 3): 25.7 mg/mL (≈ 57.6 mM)
- solubility at 3 day ([7]; 8% HPγCD in acetate, pH 4.58, aqueous with cosolvent or surfactant or cyclodextrin, 8% HPγCD in Acetate, pH 4.580, equilibrium solubility at day 3): 30.7 mg/mL (≈ 68.8 mM)
- 1H-indole-1-carboxamide Solubility ([7]; 10% HPβCD in Acetate, pH 4.610, equilibrium solubility at day 3): 30.57 mg/mL
- solubility at 3 day ([7]; 10% HPβCD in acetate, pH 4.61, aqueous with cosolvent or surfactant or cyclodextrin, 10% HPβCD in Acetate, pH 4.610, equilibrium solubility at day 3): 30.6 mg/mL (≈ 68.7 mM)
- 1H-indole-1-carboxamide Solubility ([7]; 10% HPγCD in Acetate, pH 4.668, equilibrium solubility at day 3): 34.56 mg/mL
Structure (SMILES): CNCc1cc(Oc2ccc3c(ccn3C(=O)Nc3cc(C(F)(F)F)n(C)n3)c2)ncn1 [LHA510, N-(1-methyl-5-(trifluoromethyl)-1H-pyrazol-3-yl)-5-((6-((methylamino)methyl)pyrimidin-4-yl)oxy)-1H-indole-1-carboxamide]
